In one assay the test system is E. coli ATCC 25922. Kind of assay: Broth microdilution MIC, E. coli ATCC 25922. The note with it: Escherichia coli. Format: cell-based. In short, it runs like this: (§1)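 Following CLSI guidance, growth inhibition is measured in Mueller-Hinton broth with divalent cations. Inoculum 5×10^5 CFU/mL; incubation 16-20 hours, 37° C; endpoint is visual absence of growth.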
The next assay deals with E. coli PBP3 (Escherichia coli (strain K12), UniProt P0AD68). Kind of assay: E. coli PBP3 Bocillin-FL fluorescence polarization competition binding assay. Put shortly:
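Polarization at 490/520 nm was monitored for 60 minutes in pH 8.0 Hepes buffer containing 300 mM NaCl and 5% glycerol, with compound spanning 0–1000 μM.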

The next assay has as its system K. pneumoniae 848844. Kind of assay: microbe, parasite or virus in culture. Format: cell-based, Klebsiella pneumoniae. The note with it: Klebsiella pneumoniae; K. pneumoniae 848844 producing SHV-11 and KPC-2; read-out: MIC K. pneumoniae 848844. In short, it runs like this:
as §1

Another assay has as its system N. gonorrhoeae FA19. Kind of assay: Liquid broth MIC, N. gonorrhoeae FA19. Format: cell-based. The settings on record: Neisseria gonorrhoeae; N. gonorrhoeae FA19, liquid broth; read-out: Minimum Inhibitory Concentration, N. gonorrhoeae FA19. In short, it runs like this:
(§2)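 Colonies sub-cultured 24 h earlier on supplemented GC agar are suspended in broth, adjusted by optical density at 600 nm and added to 2-fold serial compound dilutions at 5×10^5 CFU/mL. Plates incubate 40-42 hours at 36° C with 5% CO2 before visual MIC reading.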

The test system of another assay is N. gonorrhoeae FA1090. Kind of assay: Liquid broth MIC, N. gonorrhoeae FA1090. The class given is cell-based. The note with it: Neisseria gonorrhoeae; N. gonorrhoeae FA1090, liquid broth; read-out: Minimum Inhibitory Concentration, N. gonorrhoeae FA1090. Put shortly: as §2
For a further assay, the system named is N. gonorrhoeae WHO F. Kind of assay: Liquid broth MIC, N. gonorrhoeae WHO F. The class given is cell-based. The note with it: Neisseria gonorrhoeae; N. gonorrhoeae WHO F, liquid broth; read-out: Minimum Inhibitory Concentration, N. gonorrhoeae WHO F. In short, it runs like this: as §2
Where [1] appears, read: ATCC25922, E. coli ATCC 25922, broth microdilution, read-out: MIC E. coli 25922.
[2] abbreviates: fluorescence polarization competition binding with Bocillin-FL, read-out: E. coli K12 PBP3 Potency.

The structures appear in SMILES notation. pEC50: −log10 of the molar value. ≈ marks a conversion by molar mass, not a printed value. Like-named read-outs stand apart in the source and are kept apart here. A value given as a limit tells only on which side of the number the result lay.

Chain of E. coli PBP3 (P0AD68 whole entry): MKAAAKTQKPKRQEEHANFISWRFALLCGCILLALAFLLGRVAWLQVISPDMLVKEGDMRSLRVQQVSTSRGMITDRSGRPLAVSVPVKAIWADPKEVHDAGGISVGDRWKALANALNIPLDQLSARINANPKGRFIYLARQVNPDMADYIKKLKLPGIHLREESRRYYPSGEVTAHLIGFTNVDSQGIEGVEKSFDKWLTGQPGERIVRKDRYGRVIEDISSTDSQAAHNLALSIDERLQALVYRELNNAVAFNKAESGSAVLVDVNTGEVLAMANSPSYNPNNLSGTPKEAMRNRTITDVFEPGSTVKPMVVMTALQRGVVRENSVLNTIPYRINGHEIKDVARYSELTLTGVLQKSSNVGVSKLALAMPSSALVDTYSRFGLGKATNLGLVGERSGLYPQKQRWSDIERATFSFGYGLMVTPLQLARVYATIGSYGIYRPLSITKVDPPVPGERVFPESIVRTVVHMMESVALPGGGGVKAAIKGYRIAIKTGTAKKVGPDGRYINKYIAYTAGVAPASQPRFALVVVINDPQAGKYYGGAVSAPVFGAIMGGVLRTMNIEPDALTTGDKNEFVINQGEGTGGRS

In the case of `CCN1CCN(C(=O)NC(C(=O)N[C@H]2Cc3cc(F)cc(C(=O)O)c3OB2O)c2csc(N)n2)C(=O)C1=O` (stereo partly drawn) [Example 16, (3R)-3-(2-(2-aminothiazol-4-yl)-2-(4-ethyl-2,3-dioxopiperazine-1-carboxamido)acetamido)-6-fluoro-2-hydroxy-3,4-dihydro-2H-benzo[e][1,2]oxaborinine-8-carboxylic acid], the MIC in the assay with E. coli ATCC 25922 (setting [1]) and in the assay with K. pneumoniae 848844 was 32 to 64 µg/mL throughout. In addition, the pEC50 at E. coli PBP3 was 3.30 to 4.52.

Consider `CCN1CCN(C(=O)NC(C(=O)N[C@H]2Cc3cccc(C(=O)O)c3OB2O)c2ccc(O)cc2)C(=O)C1=O` (stereo partly drawn) [Example 27, (3R)-3-(2-(4-ethyl-2,3-dioxopiperazine-1-carboxamido)-2-(4-hydroxyphenyl)acetamido)-2-hydroxy-3,4-dihydro-2H-benzo[e][1,2]oxaborinine-8-carboxylic acid], for which the MIC in the assay on E. coli ATCC 25922 (ATCC25922, read-out: MIC E. coli 25922) was 32 to 64 µg/mL; in the assay with K. pneumoniae 848844 it was > 128 µg/mL. Further, the pEC50 at E. coli PBP3 is 3.30 to 4.52.

For the compound `CCN1CCN(C(=O)NC(C(=O)N[C@H]2Cc3cccc(C(=O)O)c3OB2O)c2ccc(O)c(O)c2Cl)C(=O)C1=O` (stereo partly drawn) [Example 37, (3R)-3-(2-(2-chloro-3,4-dihydroxyphenyl)-2-(4-ethyl-2,3-dioxopiperazine-1-carboxamido)acetamido)-2-hydroxy-3,4-dihydro-2H-benzo[e][1,2]oxaborinine-8-carboxylic acid], the MIC in the assay on E. coli ATCC 25922 (setting [1]) lay within 32 to 64 µg/mL; in the assay on N. gonorrhoeae FA19 it was 4 to 8 µg/mL (≈ 6.96 to 13.9 µM); with N. gonorrhoeae FA1090, 1 to 2 µg/mL (≈ 1.74 to 3.48 µM); with N. gonorrhoeae WHO F it was 1 to 2 µg/mL (≈ 1.74 to 3.48 µM). Besides, on E. coli PBP3 (setting [2]), the pEC50 is > 4.52.

As to `CCN1CCN(C(=O)NC(C(=O)N[C@H]2Cc3cccc(C(=O)O)c3OB2O)c2cnc(N)s2)C(=O)C1=O` (stereo partly drawn) [Example 51, (3R)-3-(2-(2-aminothiazol-5-yl)-2-(4-ethyl-2,3-dioxopiperazine-1-carboxamido)acetamido)-2-hydroxy-3,4-dihydro-2H-benzo[e][1,2]oxaborinine-8-carboxylic acid], the MIC with E. coli ATCC 25922 (setting [1]) lay within 8 to 16 µg/mL. Moreover, the pEC50 at E. coli PBP3 is 3.30 to 4.52.

Consider `O=C(O)c1cccc2c1OB(O)[C@@H](NC(=O)C(NC(=O)N1CCN(CCF)C(=O)C1=O)c1ccc(O)c(O)c1Cl)C2` (stereo partly drawn) [Example 71, (3R)-3-(2-(2-chloro-3,4-dihydroxyphenyl)-2-(4-(2-fluoroethyl)-2,3-dioxopiperazine-1-carboxamido)acetamido)-2-hydroxy-3,4-dihydro-2H-benzo[e][1,2]oxaborinine-8-carboxylic acid], for which the MIC in the assay with E. coli ATCC 25922 (setting [1]) was in the range of 8 to 16 µg/mL. In addition, the pEC50 at E. coli PBP3 (setting [2]) is > 4.52.

Regarding `CCCN1CCN(C(=O)NC(C(=O)N[C@H]2Cc3cccc(C(=O)O)c3OB2O)c2ccc(O)c(O)c2Cl)C(=O)C1=O` (stereo partly drawn) [Example 82, (3R)-3-(2-(2-chloro-3,4-dihydroxyphenyl)-2-(2,3-dioxo-4-propylpiperazine-1-carboxamido)acetamido)-2-hydroxy-3,4-dihydro-2H-benzo[e][1,2]oxaborinine-8-carboxylic acid], the results for the MIC in the assay on E. coli ATCC 25922 (setting [1]) and with K. pneumoniae 848844 were 32 to 64 µg/mL and > 128 µg/mL, respectively. Also, on E. coli PBP3 (setting [2]), the pEC50 is > 4.52.

Take `CCN1CCN(C(=O)NC(C(=O)N[C@H]2Cc3cccc(C(=O)O)c3OB2O)c2ccc(O)cc2F)C(=O)C1=O` (stereo partly drawn) [Example 87, (3R)-3-(2-(4-ethyl-2,3-dioxopiperazine-1-carboxamido)-2-(2-fluoro-4-hydroxyphenyl)acetamido)-2-hydroxy-3,4-dihydro-2H-benzo[e][1,2]oxaborinine-8-carboxylic acid]: the MIC is 4 to 8 µg/mL (≈ 7.38 to 14.8 µM) in the assay on N. gonorrhoeae FA19, < 0.125 µg/mL with N. gonorrhoeae FA1090 and < 0.125 µg/mL in the assay with N. gonorrhoeae WHO F. Also, the pEC50 at E. coli PBP3 (setting [2]) is > 4.52.

For the compound `CCN1CCN(C(=O)NC(C(=O)N[C@H]2Cc3cccc(C(=O)O)c3OB2O)c2cc(O)c(O)cc2F)C(=O)C1=O` (stereo partly drawn) [Example 90, (3R)-3-(2-(4-ethyl-2,3-dioxopiperazine-1-carboxamido)-2-(2-fluoro-4,5-dihydroxyphenyl)acetamido)-2-hydroxy-3,4-dihydro-2H-benzo[e][1,2]oxaborinine-8-carboxylic acid], the MIC lay within 8 to 16 µg/mL in the assay with E. coli ATCC 25922 (setting [1]) and 32 to 64 µg/mL with K. pneumoniae 848844. For the same compound, the pEC50 at E. coli PBP3 (setting [2]) was > 4.52.

Regarding `CCN1CCN(C(=O)NC(C(=O)N[C@H]2Cc3cccc(C(=O)O)c3OB2O)c2ccc(S(N)(=O)=O)cc2)C(=O)C1=O` (stereo partly drawn) [Example 102, (3R)-3-(2-(4-ethyl-2,3-dioxopiperazine-1-carboxamido)-2-(4-sulfamoylphenyl)acetamido)-2-hydroxy-3,4-dihydro-2H-benzo[e][1,2]oxaborinine-8-carboxylic acid], the MIC in the assay on E. coli ATCC 25922 (setting [1]) is 32 to 64 µg/mL; in the assay on N. gonorrhoeae FA19 it was 1 to 2 µg/mL (≈ 1.7 to 3.4 µM); in the assay with N. gonorrhoeae FA1090, < 0.125 µg/mL; in the assay on N. gonorrhoeae WHO F it was < 0.125 µg/mL. Also, on E. coli PBP3 (setting [2]), the pEC50 is > 4.52.

As for `NS(=O)(=O)c1ccc(C(NC(=O)N2CCN(CCF)C(=O)C2=O)C(=O)N[C@H]2Cc3cccc(C(=O)O)c3OB2O)cc1` (stereo partly drawn) [Example 103, (3R)-3-(2-(4-(2-fluoroethyl)-2,3-dioxopiperazine-1-carboxamido)-2-(4-sulfamoylphenyl)acetamido)-2-hydroxy-3,4-dihydro-2H-benzo[e][1,2]oxaborinine-8-carboxylic acid], the MIC was 32 to 64 µg/mL in the assay with E. coli ATCC 25922 (setting [1]), 1 to 2 µg/mL (≈ 1.65 to 3.3 µM) in the assay on N. gonorrhoeae FA19, < 0.125 µg/mL in the assay with N. gonorrhoeae FA1090 and < 0.125 µg/mL with N. gonorrhoeae WHO F. For the same compound, the pEC50 at E. coli PBP3 (setting [2]) was > 4.52.

Take `CCN1CCN(C(=O)NC(C(=O)N[C@H]2Cc3cccc(C(=O)O)c3OB2O)c2cccc(N)n2)C(=O)C1=O` (stereo partly drawn) [Example 104, (3R)-3-(2-(6-aminopyridin-2-yl)-2-(4-ethyl-2,3-dioxopiperazine-1-carboxamido)acetamido)-2-hydroxy-3,4-dihydro-2H-benzo[e][1,2]oxaborinine-8-carboxylic acid]: the MIC in the assay with E. coli ATCC 25922 (setting [1]) was 8 to 16 µg/mL; with K. pneumoniae 848844, > 128 µg/mL. For the same compound, the pEC50 on E. coli PBP3 (setting [2]) was > 4.52.

For `CCN1CCN(C(=O)NC(C(=O)N[C@H]2Cc3cccc(C(=O)[O-])c3OB2O)c2ccc[n+](CC(N)=O)c2)C(=O)C1=O` (stereo partly drawn) [Example 107, (3R)-3-(2-(1-(2-amino-2-oxoethyl)pyridin-1-ium-3-yl)-2-(4-ethyl-2,3-dioxopiperazine-1-carboxamido)acetamido)-2-hydroxy-3,4-dihydro-2H-benzo[e][1,2]oxaborinine-8-carboxylate], the MIC in the assay on E. coli ATCC 25922 (setting [1]) and in the assay with K. pneumoniae 848844 was 32 to 64 µg/mL each time. Also, the pEC50 at E. coli PBP3 (setting [2]) was < 3.30.

Regarding `CCN1CCN(C(=O)N[C@@H](C(=O)N[C@H]2Cc3ccc(F)c(C(=O)O)c3OB2O)[C@@H](C)O)C(=O)C1=O` [Example 110, (R)-3-((2R,3R)-2-(4-ethyl-2,3-dioxopiperazine-1-carboxamido)-3-hydroxybutanamido)-7-fluoro-2-hydroxy-3,4-dihydro-2H-benzo[e][1,2]oxaborinine-8-carboxylic acid], the MIC lay within 8 to 16 µg/mL with E. coli ATCC 25922 (setting [1]) and 32 to 64 µg/mL in the assay on K. pneumoniae 848844. Moreover, at E. coli PBP3, the pEC50 was 3.30 to 4.52.

With `CCN1CCN(C(=O)NC(C(=O)N[C@H]2Cc3cccc(C(=O)O)c3OB2O)c2cccs2)C(=O)C1=O` (stereo partly drawn) [Example 115, (3R)-3-(2-(4-ethyl-2,3-dioxopiperazine-1-carboxamido)-2-(thiophen-2-yl)acetamido)-2-hydroxy-3,4-dihydro-2H-benzo[e][1,2]oxaborinine-8-carboxylic acid], the MIC is 32 to 64 µg/mL in the assay on E. coli ATCC 25922 (setting [1]) and > 128 µg/mL in the assay on K. pneumoniae 848844. For the same compound, the pEC50 at E. coli PBP3 (setting [2]) was > 4.52.

As for `CCN1CCN(C(=O)NC(C(=O)N[C@H]2Cc3cccc(C(=O)O)c3OB2O)c2cccc(O)n2)C(=O)C1=O` (stereo partly drawn) [Example 117, (3R)-3-(2-(4-ethyl-2,3-dioxopiperazine-1-carboxamido)-2-(6-hydroxypyridin-2-yl)acetamido)-2-hydroxy-3,4-dihydro-2H-benzo[e][1,2]oxaborinine-8-carboxylic acid], the MIC in the assay with E. coli ATCC 25922 (setting [1]) and with K. pneumoniae 848844 was 32 to 64 µg/mL throughout. This compound also showed a pEC50 at E. coli PBP3 of 3.30 to 4.52.

As for `CCN1CCN(C(=O)NC(C(=O)N[C@H]2Cc3cccc(C(=O)O)c3OB2O)c2cnc(O)cn2)C(=O)C1=O` (stereo partly drawn) [Example 121, (3R)-3-(2-(4-ethyl-2,3-dioxopiperazine-1-carboxamido)-2-(5-hydroxypyrazin-2-yl)acetamido)-2-hydroxy-3,4-dihydro-2H-benzo[e][1,2]oxaborinine-8-carboxylic acid], the MIC with E. coli ATCC 25922 (setting [1]) was 32 to 64 µg/mL; in the assay with K. pneumoniae 848844, > 128 µg/mL. In addition, the pEC50 on E. coli PBP3 is 3.30 to 4.52.

On to `CCCN1CCN(C(=O)NC(C(=O)N[C@H]2Cc3ccc(F)c(C(=O)O)c3OB2O)c2ccc(O)c(O)c2Cl)C(=O)C1=O` (stereo partly shown) [Example 125], for which the MIC in the assay on E. coli ATCC 25922 (setting [1]) is 2 to 4 µg/mL; in the assay on N. gonorrhoeae FA19, 16 to 32 µg/mL (≈ 26.4 to 52.7 µM); in the assay on N. gonorrhoeae FA1090 it was 1 to 2 µg/mL (≈ 1.65 to 3.3 µM); in the assay on N. gonorrhoeae WHO F, 0.25 to 0.5 µg/mL (≈ 0.412 to 0.824 µM). On E. coli PBP3, this compound had a pEC50 of 3.30 to 4.52.

Values taken from patent US12173018B2, “Penicillin-binding protein inhibitors” (priority 2018, dated 2024).
